Experimental data from patent US9198879B2, “Pharmacologically optimized multimodal drug delivery system for nordihydroguiaretic acid (NDGA)” (Napo Pharmaceuticals, Inc., priority 2011, dated 2015).
“Also recorded” adds a separate entry of the source.

Tested on: fructose-fed and fat-fed/STZ rat models
Assay: NDGA versus metformin at equimolar doses in fructose-fed and fat-fed/STZ rat models
Format: in vivo
Conditions: equimolar doses of NDGA or metformin
Source text: NDGA has been studied by administering it orally to animals to determine its effectiveness for lowering glucose, free fatty acid (FFA) and triglyceride levels. […] See Example 2 below. […] There was no significant baseline difference between the NDGA and metformin groups.
In one such study, the effects of NDGA and metformin as a control drug for treatment of diabetes were studied in a non-diabetic model of hypertriglyceridemia (fructose-fed) and a non-genetic, (i.e., streptozotocin (STZ) treated) model of diabetes. […] See FIGS. 2 (glucose) and 3 (triglycerides).

## CN(C)C(=N)N=C(N)N [metformin]
  change in insulin concentrations: without changing insulin concentration; also recorded: without any change in insulin concentrations
  glucose lowering in comparison to the vehicle control: significantly lowered glucose
  triglyceride lowering in comparison to the vehicle control: significantly lowered triglycerides
